From patent publication US20240327421A1 (Marquette University, priority 2017, published 2024)
Values joined by “and” are separate entries in the source; they are usually repeats but may differ in a detail not shown here. Equal values may be shown once.

What was measured:
ERα [1] = target: T1, ERα (Homo sapiens, UniProt P03372); assay: Cell-based luciferase reporter assay, full length ERα, agonist mode; conditions: 22 h
T1 construct: employs a full length and native ER (comprised of an ER LBD and an ER DBD)
T1 sequence (P03372 1-595): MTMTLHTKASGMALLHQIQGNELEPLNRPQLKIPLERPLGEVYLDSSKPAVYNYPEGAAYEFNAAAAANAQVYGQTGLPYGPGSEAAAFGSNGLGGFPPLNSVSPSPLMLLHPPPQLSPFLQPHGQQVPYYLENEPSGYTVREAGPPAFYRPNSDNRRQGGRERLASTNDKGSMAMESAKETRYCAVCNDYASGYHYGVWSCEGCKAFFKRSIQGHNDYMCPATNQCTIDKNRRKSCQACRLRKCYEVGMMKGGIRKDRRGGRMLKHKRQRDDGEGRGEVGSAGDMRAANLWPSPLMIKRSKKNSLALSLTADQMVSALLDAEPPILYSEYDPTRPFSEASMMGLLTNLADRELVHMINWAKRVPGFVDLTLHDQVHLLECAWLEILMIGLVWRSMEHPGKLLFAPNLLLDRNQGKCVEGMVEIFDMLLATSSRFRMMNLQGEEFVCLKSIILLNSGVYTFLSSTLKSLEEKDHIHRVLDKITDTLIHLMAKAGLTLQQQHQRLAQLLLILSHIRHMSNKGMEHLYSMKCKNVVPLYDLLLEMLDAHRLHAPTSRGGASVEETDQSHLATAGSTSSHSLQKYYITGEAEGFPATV

ERα [2] = target: T1, ERα; assay: Cell-based luciferase reporter assay, full length ERα, antagonist mode
[3] = target: T2, human ER Beta ligand-binding domain (LBD) (Homo sapiens, UniProt Q92731); assay: TR-FRET competitive binding assay, ERβ LBD; conditions: displacement of fluorescent tracer from ERβ LBD
T2 construct: purchased Thermo Fisher Scientific
T2 sequence (Q92731 264-498 limits assumed): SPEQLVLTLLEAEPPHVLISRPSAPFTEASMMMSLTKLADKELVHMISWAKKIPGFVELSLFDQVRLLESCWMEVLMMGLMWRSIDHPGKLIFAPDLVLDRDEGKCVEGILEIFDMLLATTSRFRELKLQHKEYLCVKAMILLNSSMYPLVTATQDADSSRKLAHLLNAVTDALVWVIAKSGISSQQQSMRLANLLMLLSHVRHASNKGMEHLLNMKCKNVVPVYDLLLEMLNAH

ovariectomized mice = assay: Peripheral tissue pathology (H&E of liver, kidney, heart); assay type: in vivo; conditions: 24 h after single IP injection; 0.5 or 5 mg/kg ISP358-2, 0.05 mg/kg DPN
Description: Assessment of Potential Peripheral Pathology. To assess possible toxicity of ISP358-2 treatment to peripheral organs, ovariectomized mice received a single intraperitoneal injection of vehicle or ISP358-2, and liver, kidney, and heart tissues were collected 24 hours later. […] Tissues were fixed in 10% formalin buffered solution for 24 hours. Twenty specimens were processed and analyzed. Each specimen contained three pieces of tissue. The tissues from each animal was transferred to a labeled cassette and processed on an automated tissue processor following standard procedures. The tissues were then embedded in paraffin wax. No specific orientation of the tissue was performed. Four-micron sections were cut from each paraffin block and placed onto a slide. The slides were then stained using hematoxylin and cosin (H&E) on an automated stainer (FIGS. 13A-13L). The slides were then examined by a pathologist (ACM) who is board certified in anatomical pathology by the American Board of Pathology. All specimens contained three tissue samples corresponding to liver, kidney, and heart. In some instances, portions of adjacent tissues were also present. […] For heart, the myocytes and coronary vessels were examined, (2) evidence of inflammation was evaluated including hepatitis, glomerulonephritis, interstitial nephritis, and myocarditis, and (3) evidence of ischemic changes was examined. […]

[4] = full length ERα, read-out: ERα agon. IC50
[5] = inhibition of estradiol-induced transcription, read-out: ERα antagon. IC50

`CC1CCC(c2ccc(O)cc2)CC1` (mixture of isomers) [Compound 8, 4-(4-Methylcyclohexyl) phenol] was tested, and the IC50 (ERα [1]; [4]) was greater than 10 µM and the IC50 (ERα [2]; [5]) was greater than 10 µM.
`OCC1CC=C(c2ccc(O)cc2)CC1` (racemic) [Compound 18, 4′-(Hydroxymethyl)-2′,3′,4′,5′-tetrahydro-[1,1′-biphenyl]-4-ol] showed an IC50 (ERα [1]; [4]) greater than 20 µM and an IC50 (ERα [2]; [5]) greater than 10 µM.
`OCC1(O)CCC(c2ccc(O)cc2)CC1` (single isomer, unassigned) [Compound 12, 4-(4-Hydroxy-4-(hydroxymethyl)cyclohexyl) phenol] gave an IC50 [3] of 2.7 µM.
For `OCC1CCC(c2ccc(O)cc2)CC1` (stereo not drawn) [15:16 (3:2), 4-(4-(Hydroxymethyl)cyclohexyl) phenol], the IC50 (ERα [1]; ERα agon. IC50, full length ERα) was greater than 100 µM and the IC50 (ERα [2]) was greater than 10 µM.
`O=C1CCC(c2ccc(O)cc2)CC1` [Compound 1, 4-(4-hydroxyphenyl) cyclohexanone] showed an IC50 [3] of 19 µM.
With `Oc1ccc([C@H]2CC[C@H](O)CC2)cc1` [Compound 2, trans-4-(4-Hydroxycyclohexyl) phenol] the IC50 [3] was 7.25 µM and 7.52 µM.
Work on `C[C@]1(O)CC[C@@H](c2ccc(O)cc2)CC1` [Compound 3, 4-(4-Hydroxy-4-methylcyclohexyl) phenol] yielded an IC50 [3] of 6.29 µM.
For `ON=C1CCC(c2ccc(O)cc2)CC1` (stereo not drawn) [Compound 4, 4-(4-Hydroxyphenyl) cyclohexanone oxime], the IC50 [3] was 1.57 µM.
In the case of `C=C1CCC(c2ccc(O)cc2)CC1` [Compound 7, 4-(4-Hydroxyphenyl) methylenecyclohexane], the IC50 (ERα [1]; [4]) is reported as greater than 10 µM and the IC50 (ERα [2]; [5]) is reported as greater than 10 µM.
`C=C1CCC(c2ccc(O)c(C=O)c2)CC1` [Compound 9, 2-Hydroxy-5-(4-methylenecyclohexyl) benzaldehyde] gave an IC50 [3] of 1 µM.
Molecule `C=C1CCC(c2ccc(O)c(/C=N/O)c2)CC1` [Compound 10, 2-Hydroxy-5-(4-methylenecyclohexyl) benzaldehyde oxime] has an IC50 [3] of 0.225 ± 0.094 µM.
For `Oc1ccc([C@]23CC[C@H](CC2)CO3)cc1` [Compound 17, 1-(4-Hydroxyphenyl)-2-oxabicyclo [2.2.2] octane], the IC50 [3] was 0.25 ± 0.056 µM.
With `OCC=C1CCC(c2ccc(O)cc2)CC1` (stereo not drawn) [Compound 24, 4-(4′-Hydroxyphenyl) (2-hydroxyethylidene) cyclohexane] the IC50 [3] was 0.676 µM and the IC50 ([3]; listed as (±)-24) was 0.68 ± 0.11 µM.
Molecule `OCCC1CCC(c2ccc(O)cc2)CC1` (stereo not drawn) [Compound 25, 4-[4-(2-Hydroxyethyl)cyclohexyl] phenol] has an IC50 (ERα [1]; [4]) greater than 50 µM and an IC50 (ERα [2]; [5]) greater than 10 µM.
In the case of `N#CC(Cc1ccc(O)cc1)c1ccc(O)cc1` (stereo not drawn) [DPN, 2,3-bis(4-hydroxyphenyl)-propionitrile, reference compound], the “histological abnormalities / peripheral toxicity in liver, kidney, heart” value (ovariectomized mice) is reported as “Histological abnormalities were not detected”.
